Reference: patent US10398659B2, “Adjuvant chemotherapy for anaplastic gliomas” (OKLAHOMA MEDICAL RESEARCH FOUNDATION, priority 2008, dated 2019)
Structures can show the parent of a compound that is named as a salt.

Legend:
C6 cells = assay: cell proliferation; type: cell-based, rat; settings: concentration dependence
[1] = in vivo; cited from earlier work
VEGF = VEGF protein expression in C6 cells; type: cell-based, rat; settings: 5 mM
Text: (§1) The inventors then examined iNOS and VEGF protein expressions in the 2,4-ds-PBN treated C6 cells.

[2] = tested on: pro-caspase 3 and pro-caspase 9; assay: Western blots of apoptotic factors in C6 cells; type: cell-based, rat; settings: increasing concentrations
Method: FIG. 6: Western blots of rat C6 cells with increasing concentrations of 2,4-ds-PBN. Increasing levels of apoptotic factors pro-caspase 3 and pro-caspase 9 are shown, relative to actin.
(§2) FIG. 4 represents a series of MR images taken over a period of 25 days for an untreated control group and representative data (best-case, average effect, and worst-case) for 2,4-ds-PBN-treated rats (via drinking water administration at a dose of 17 mg/kg/day). […] Rats treated with 2,4-ds-PBN achieved >80% survival over the 40 day study period (n=15), compared to non-treated rats (n=5). […] Gross signs of adverse effects that were monitored included weight loss, ruffling of fur, and behavioural and postural changes.

solubility in water = type: physicochemical; settings: free acid
Text: The product so formed is the free acid and is characterized by a molecular weight of […]. It is a white powdery material which decomposes upon heating. […]; 8.836 ppm (d, 8.4 Hz); 8.839 ppm (d, 1.7 Hz); 8.774 ppm (s).

C6 glioma = assay: intracerebral C6 rat glioma cell implantation model, MR imaging; type: in vivo
Method: The inventors used an intracerebral C6 rat glioma cell implantation method, widely accepted by the glioma research field, as a good model for gliomas. To induce glioma in rats, C6 rat glioma cells (10^6 cells in 10 μL were injected into the cerebral cortex of male Fischer 344 rats. Fifteen days later, 2,4-ds-PBN was orally administered through drinking water (0.015%, 17.5 mg/kg). The efficacy of 2,4-ds-PBN was assessed with the tumor growth patterns and growth rates by using magnetic resonance (MR) imaging (T1/T2-weighted imaging) methods over the course of a month.
as §2

iNOS = iNOS protein expression in C6 cells; type: cell-based, rat; settings: 100 μM
Text: as §1

[3] = monitoring of adverse effects and toxicity in treated glioma rats; type: in vivo
Text: . n=15 for 2,4-ds-PBN-treated rats, and n=5 for non-treated rats) in 2,4-ds-PBN-treated rats (see FIG. 5). Rats treated with 2,4-ds-PBN achieved >80% survival over the 40 day study period (n=15), compared to non-treated rats (n=5). […] Gross signs of adverse effects that were monitored included weight loss, ruffling of fur, and behavioural and postural changes.

[4] = rats; cited from earlier work
C6 gliomas = settings: cited from earlier work

Q: Which “inhibition of cell proliferation” value (C6 cells) does the source give for `CC(C)(C)/[N+]([O-])=C/c1ccccc1S(=O)(=O)O` [S-PBN] here?
A: little effect

Q: With `CC[C@]1(O)C[C@H]2CN(CCc3c([nH]c4ccccc34)[C@@](C(=O)OC)(c3cc4c(cc3OC)N(C=O)[C@H]3[C@@](O)(C(=O)OC)[C@H](OC(C)=O)[C@]5(CC)C=CCN6CC[C@]43[C@@H]65)C2)C1` [Vincristine, vincaleukoblastine, a 22-oxo-, sulfate (1:1) (salt)] as the compound, how does the blood-brain-barrier penetration [1] read?
A: does not appear to cross the blood brain barrier

Q: For `O=NN(CCCl)C(=O)NC1CCCCC1` [Lomustine, 1-(2-chloroethyl)-3-cyclohexyl-1-nitrosourea], which blood-brain-barrier penetration [1] is on record?
A: crosses the blood brain barrier

Q: With `CC(C)(C)[N+]([O-])=Cc1ccc(S(=O)(=O)O)cc1S(=O)(=O)O` [2,4-ds-PBN, 2,4-disulfonyl phenyl tert-butyl nitrone] as the compound, how does the VEGF expression reduction (VEGF) read?
A: 50%

Q: What about the “apoptotic effect (pro-caspase 3, pro-caspase 9 levels relative to actin)” value [2] of the same compound?
A: pro-apoptotic as concentration increases

Q: What about the solubility (solubility in water) of the same compound?
A: > 1000 mg/mL

Q: And the “inhibition of cell proliferation” value (C6 cells)?
A: little effect

Q: And the “C6 glioma tumor volumes decrease” value (C6 glioma; 17 mg/kg/day via drinking water from day 15 after cell implantation, vs non-treated rats, n=15 vs n=5)?
A: > 15 fold

Q: What about the “survival over the 40 day study period” value (C6 glioma; 2,4-ds-PBN in drinking water, n=15, compared to non-treated rats (n=5)) of the same compound?
A: > 80%

Q: And the iNOS expression decrease (iNOS)?
A: approximately 75%

Q: And the toxicity effects ([3]; rat, in vivo)?
A: No toxicity effects were detected

Q: And the “side effects during the treatment period” value ([3]; weight loss, ruffling of fur, behavioural and postural changes monitored)?
A: No side effects were observed

Q: And the blood-brain-barrier penetration [1]?
A: cannot easily pass through the BBB

Q: For `CC(C)(C)[N+]([O-])=Cc1ccccc1` [PBN, phenyl N-tert-butyl nitrone], which half-life [4] is on record?
A: about 132 minutes

Q: What about the “inhibition of cell proliferation” value (C6 cells) of the same compound?
A: significantly inhibited cell proliferation in a concentration dependent manner

Q: And the iNOS expression decrease (iNOS)?
A: 5%

Q: And the blood-brain-barrier penetration [1]?
A: easily penetrate the BBB

Q: What about the “effect on tumor growth, pretreatment” value (C6 gliomas; PBN administration as a pretreatment, rat C6 glioma) of the same compound?
A: decrease in growth rate and tumor regression

Q: What about the “effect on tumor regression, post-treatment” value (C6 gliomas; post-treatment of PBN, compared with pre-treatment) of the same compound?
A: little effect for tumor regression
